# Data taken from US9815788B2, “Anti-angiogenic compounds” (University College Dublin National University of Ireland, …, priority 2012, dated 2017).
# Where a name gives a salt, the structure may show the parent alone.
# Assays:
# [1] = tested on: zebrafish intersegmental vessels; experiment: Quantification of intersegmental vessel number in zebrafish; assay type: in vivo; settings: for inhibition of developmental angiogenesis of intersegmental vessels (number of intersegmental vessels): 10 μM, from 6 hpf; for dose-dependent inhibition of development of intersegmental vessels: decreasing doses 10, 7.5, 5 and/or 1 μM, HCl salt
# Outline: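 Zebrafish larvae were dechorionated by hand, euthanised, and fixed overnight at 4° C. in 4% PFA before being analysed. Following PBS washes, they were placed on depression slides and examined by epi-fluorescence on an Olympus SZX16 fluorescent microscope. Intersegmental vessels were counted, and the mean count was plotted for each drug.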
# [2] = tested on: OE33P radio-sensitive oesophageal adenocarcinoma cells; experiment: Quantification of glycolysis (ECAR, Seahorse), OE33P; assay type: cell-based, human; settings: 10 μM, 24 hours
# Experimental: (§1) OE33P radio-sensitive and OE33R radio-resistant oesophageal adenocarcinoma cells were used to test the effects of compounds 11B HCl, 11B CC11 HCl, 11B CC16 HCl, 11B 471 and 11B 268 on glycolysis. Cells were maintained in RPMI media supplemented with 10% foetal calf serum, penicillin (100 U/ml) and streptomycin (100 μg/ml). A total of 11,000 or 13,000 cells, in 100 μl media, were seeded per well in 24 well plates and left to incubate for 24 hours, with an additional 150 μl media added after 5 hours. The media was replaced with solutions containing 10 μM of 11B HCl, 11B CC1 HCl, 11B CC16 HCl, 11B 471, 11B 268 or fresh media as a control. Each drug had 6 replicates. After 24 hours of treatment, media was replaced with modified DMEM supplemented with 0.5 mM glucose. Rates of glycolysis were determined using Seahorse Biosciences metabolism technology. The media was disposed and the cells washed with PBS. The cells were fixed with 1% glutaraldehyde for 15 minutes and then stained with crystal violet for 30 minutes. The plates were blotted and dried overnight. The cells were resuspended with 1% TritonX-100 and shaken for 15 minutes. The absorbance was read on a spectrophotometer at 590 nm. Rates of glycolysis were then normalised to cell number.
# as §1, with “radiosensitive” for “radio-sensitive and OE33R radio-resistant”, “the compound 11B_ZHCl” for “compounds 11B HCl, 11B CC11 HCl, 11B CC16 HCl, 11B 471 and 11B 268”, “11,000” for “11,000 or 13,000”, “11B_ZHCl” for “11B HCl, 11B CC1 HCl, 11B CC16 HCl, 11B 471, 11B 268”, “treatment” for “drug”, “number. No changes in ECAR were detected in OE33R treated cells.” for “number.”
# [3] = tested on: OE33R radio-resistant oesophageal adenocarcinoma cells; experiment: Quantification of oxidative phosphorylation (OCR, Seahorse), OE33R; assay type: cell-based, human; settings: 10 μM, 24 hours
# Experimental: OE33P radiosensitive and OE33R radio-resistant oesophageal adenocarcinoma cells were used to test the effects of the compounds 11B HCl, 11B CC11 HCl, 11B CC16 HCl, 11B 471 and 11B 268 on oxidative phosphorylation. Cells were maintained in RPMI media supplemented with 10% foetal calf serum, penicillin (100 U/ml) and streptomycin (100 μg/ml). A total of 11,000-13,000 cells, in 100 μl media, were seeded per well in 24 well plates and left to incubate for 24 hours, with an additional 150 μl media added after 5 hours. The media was replaced with solutions containing 10 μM of 11B HCl, 11B CC11 HCl, 11B CC16 HCl, 11B 471, 11B 268 or fresh media as a control. Each drug had 6 replicates. After 24 hours of treatment, media was replaced with modified DMEM supplemented with 0.5 mM glucose. Rates of oxidative phosphorylation were determined using Seahorse Biosciences metabolism technology. The media was disposed and the cells washed with PBS. The cells were fixed with 1% glutaraldehyde for 15 minutes and then stained with crystal violet for 30 minutes. The plates were blotted and dried overnight. The cells were resuspended with 1% TritonX-100 and shaken for 15 minutes. The absorbance was read on a spectrophotometer at 595 nm. Rates of oxidative phosphorylation were then normalised to cell number.
# OE33P radiosensitive and OE33R radioresistant oesophageal adenocarcinoma cells were used to test the effects of the compound 11B_Z_HCl on oxidative phosphorylation. Cells were maintained in RPMI media supplemented with 10%0/foetal calf serum, penicillin […]) and streptomycin (100 μg/ml). A total of 11,000 cells, in 100 μl media, were seeded per well in 24 well plates and left to incubate for 24 hours, with an additional 150 μl media added after 5 hours. The media was replaced with solutions containing 10 μM of 11B_Z_HCl or fresh media as a control. Each treatment had 6 replicates. After 24 hours of treatment, media was replaced with modified DMEM supplemented with 0.5 mM glucose. Rates of oxidative phosphorylation were determined using Seahorse Biosciences metabolism technology. […]
Structure (SMILES),inhibition of developmental angiogenesis of intersegmental vessels (number of intersegmental vessels) [1],"extracellular acidification rate (ECAR), a measure of glycolysis ([2]; HCl salt)","extracellular acidification rate (ECAR), a measure of glycolysis ([2]; listed as 11B_ZHCl, HCl salt)","oxygen consumption rate (OCR), a measure of oxidative phosphorylation ([3]; HCl salt)","extracellular acidification rate (ECAR), a measure of glycolysis [2]","oxygen consumption rate (OCR), a measure of oxidative phosphorylation [3]",dose-dependent inhibition of development of intersegmental vessels [1],dose-dependent inhibition of development of intersegmental vessels ([1]; listed as 11B-CC11 HCl)
"Cl.Oc1ccccc1/C=C\c1ccc2ccccc2n1 [Compound 11B_Z_HCl, (Z)-2-(2-(Quinolin-2-yl)vinyl) phenol HCl salt]",inhibit developmental angiogenesis of zebrafish intersegmental vessels in a statistically significant manner,significantly reduces,Significantly Reduces,Significantly Reduces,–,–,–,–
Oc1ccccc1/C=C/c1ccc2ccccc2n1 [11B HCl],–,–,–,–,significantly reduce,significantly reduce,–,–
"C/C(=C\c1ccccc1O)c1ccc2ccccc2n1.Cl [Compound 11B_CC11_HCl, (E)-2-(2-Quinolin-2-yl-propenyl)-phenol HCl salt]",inhibit developmental angiogenesis of zebrafish intersegmental vessels in a statistically significant manner,–,–,–,significantly reduce,significantly reduce,inhibit developmental angiogenesis of zebrafish intersegmental vessels in a dose-dependent statistically significant manner,dose-dependent effect
